# Test results published in paper PMC12362615, “Design, Synthesis, and Cellular Characterization of a New Class of IPMK Kinase Inhibitors” (Journal of Medicinal Chemistry, 2025).
# Where “and” joins values, the source holds several entries; their conditions need not be identical. Equal values may be shown once. Read-outs that look alike come from different tables or passages of the source.
# Columns and labels:
# [1] = target: T1, purified recombinant human IPMK kinase domain (Homo sapiens, UniProt Q8NFU5); experiment: IPMK IC50 determination, Kinase-Glo assay; assay type: biochemical
# T1 sequence (Q8NFU5 with tags, fused parts or gaps): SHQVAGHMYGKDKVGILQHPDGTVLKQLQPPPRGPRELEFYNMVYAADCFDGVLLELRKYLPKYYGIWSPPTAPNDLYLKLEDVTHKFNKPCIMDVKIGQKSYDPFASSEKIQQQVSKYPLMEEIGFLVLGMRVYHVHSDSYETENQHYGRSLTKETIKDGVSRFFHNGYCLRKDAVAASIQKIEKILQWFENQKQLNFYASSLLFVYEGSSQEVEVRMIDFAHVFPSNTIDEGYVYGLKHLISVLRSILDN
# Description: (§1) These assay conditions were optimized with respect to reaction time, IPMK enzyme concentration, and IP3 concentration to determine the IC50 values for these ATP-competitive compounds.
# [2] = tested on: purified recombinant human IPMK kinase domain; experiment: IPMK IC50 determination, Kinase-Glo assay; assay type: biochemical; conditions: for decrease of inhibitory activity toward IPMK compared to 1: compared to compound 1
# Description: as §1
# [3] = target: T2, purified recombinant human IP6K2 kinase domain (Homo sapiens, UniProt Q9UHH9); experiment: IP6K2 IC50 determination, malachite green Pi release assay; assay type: biochemical; conditions: for IP6K2/IPMK: Table S1, ratio of IC50 values; for IC50: supplementary csv
# T2 sequence (Q9UHH9 1-426): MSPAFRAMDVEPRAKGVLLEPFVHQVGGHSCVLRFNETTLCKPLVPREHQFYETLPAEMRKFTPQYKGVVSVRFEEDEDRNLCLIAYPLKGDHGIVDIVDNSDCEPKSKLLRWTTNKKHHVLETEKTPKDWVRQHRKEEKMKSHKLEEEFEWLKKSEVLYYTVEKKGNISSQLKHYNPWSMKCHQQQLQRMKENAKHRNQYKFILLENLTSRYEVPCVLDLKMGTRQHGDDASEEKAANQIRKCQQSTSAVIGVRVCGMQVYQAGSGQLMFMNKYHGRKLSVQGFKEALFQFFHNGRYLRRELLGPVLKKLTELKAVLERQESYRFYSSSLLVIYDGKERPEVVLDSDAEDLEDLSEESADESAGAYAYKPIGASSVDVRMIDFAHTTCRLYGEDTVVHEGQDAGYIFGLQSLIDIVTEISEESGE
# Procedure: IP6K2 IC50 values were determined using the purified recombinant human IP6K2 kinase domain expressed in a 384-well clear polystyrene plate (VWR 82051-264). This human IP6K2 kinase domain (100 nM) was used at 37 °C in 50 μL reaction mixtures containing 5.0 μM human Dipp1, 50 mM Tris (pH 6.9), 10 mM MgCl2, 0.02% Triton X-100, 25 μM InsP6, and 50 μM ATP for 30 min. Pi release was determined with a malachite green colorimetric assay. Reactions were quenched by the addition of 12.5 μL of phosphate detection reagent (MAK3071KT, Sigma-Aldrich). Pi release was quantified from the absorbance at 620 nm by using appropriate standards.
# [4] = tested on: human U251-MG glioblastoma cells; experiment: CyQuant cell count / proliferation assay; assay type: cell-based; conditions: 400 nM, 48 h, vs DMSO
# Procedure: 1 Compound 1 inhibits human U251 glioblastoma cell growth and labeled inositol phosphate levels. (A) Schematic of inositol phosphate metabolism. (B) Chemical structure of compound 1, indicating moiety A (blue highlight), the core (gray highlight), and moiety B (red highlight), and the IC50 value as determined by the kinase-GLO assay. (C) CyQuant cell count assay of 10,000 human U251-MG glioblastoma cells seeded per well, treated for 48 h with DMSO vehicle or 400 nM compound 1 (n = 8, ***p = 0.0046, unpaired t test). (D) HPLC analysis of ^3H-inositol phosphates from U251-MG cells treated with 400 nM compound 1 (red bars) or DMSO (blue bars) and metabolically labeled with ^3H-inositol for 48 h, expressed as the percentage of the inositol peak from the HPLC for InsP3, InsP4, InsP5, and InsP6, as indicated, *p < 0.05 by unpaired t test Bonferroni corrected for multiple comparisons. (E) Same data as in (D) replotted with a nonzero y-axis to facilitate visualizing differences between DMSO vs. compound treatment for each indicated inositol phosphate species, *p < 0.05 by unpaired t test Bonferroni corrected for multiple comparisons.
# Error represents the standard error from 3 independent assays. (B) CyQuant cellular proliferation assay of 10,000 human U251-MG glioblastoma cells seeded per well, treated for 48 h with DMSO vehicle or 10 μM 14 (n = 8, ****p adj < 0.0001 by one-way ANOVA, Dunnett’s corrected; *p < 0.05 by unpaired t test). (C) HPLC analysis of ^3H-inositol phosphates from U251-MG cells treated with 10 μM compound 14 (red bars) or DMSO (blue bars) and metabolically labeled with ^3H-inositol for 48 h, expressed as a percentage of all the peaks detectable from the HPLC, *p < 0.05, **p < 0.01, ***p < 0.001 by unpaired t test compared to DMSO-treated control for all remaining panels, n = 3. (D) Same as (C) but expressed as a percentage of the inositol HPLC peak, n = 3. (E) Same as C but expressed as a percentage of all the inositol phosphate peaks combined from the HPLC, n = 3.
# [5] = tested on: inositol phosphate levels in U251-MG cells; experiment: 3H-inositol metabolic labeling and HPLC of inositol phosphates; assay type: cell-based, human; conditions: 400 nM, 48 h, vs DMSO
# Procedure: Human U251-MG glioblastoma cells (ECACC 09063001) were grown in DMEM supplemented with 10% FBS. The medium was changed to inositol-free DMEM, and cells were inositol-starved for 1–3 days. Cells were maintained in inositol-free DMEM medium, treated with the indicated inhibitor or DMSO for 1–2.5 h, and supplemented with 100 μCi ^3H-inositol (PerkinElmer) for 48 or 72 h, as indicated on each figure. Cells were then washed in PBS and lysed in 200 μL HCl (0.5 M), 250 μL of MeOH was added to each well of a 6-well plate (approximately 10^6 cells), followed by 125 μL of 2 M KCl. Lysates were scraped and sonicated on ice for three 1 min cycles. Inositol phosphate (IP) extracts were cleaned of lipids by adding 250 μL of CHCl3, vortexing and centrifuging samples for 2 min at 5000 rpm to separate upper aqueous and lower organic phases, upper phase contains soluble IPs. This extraction was repeated once. Samples were dried in a SpeedVac, resuspended in 10 mM ammonium phosphate (pH= 3.5), and filtered. HPLC separation and detection of the inositol species on the upper phase used a Partisphere SAX 4.6 mm × 250 mm column, eluted with 10 mM (buffer A) to 1.3 M (buffer B) ammonium phosphate (pH = 3.8) and online flow scintillation analyzer (FSA, PerkinElmer). Elution of [^32P]-labeled IP4, IP5, and IP6 standards confirmed the identity of each peak off the HPLC. Quantification represents three biologically independent metabolic labeling samples with error representing the standard deviation of the mean.
# [6] = Solubility; assay type: physicochemical
# [7] = Pharmacokinetic studies in mice; assay type: in vivo, male CD1 mice; conditions: IV, 3 mg/kg; for AUC(0-t) / Cmax / clearance / half-life / Vd: male, CD1, mouse, plasma; for Vd: read-out: Vss
# Procedure: All the procedures related to animal handling, care, and treatment in this study were performed according to guidelines approved by the Institutional Animal Care and Use Committee (IACUC) of Pharmaron (PK-R-06012023 and PK-M-07182023), following the guidance of the Association for Assessment and Accreditation of Laboratory Animal Care (AAALAC). A group of 3 male CD1 mice (2 for exploratory PK) were dosed intravenously (IV) or intraperitoneally (IP) with a solution formulation of the tested compounds in 10% NMP, 5% Solutol in normal saline (v/v/v, 10:5:85). From each mouse, blood samples ([…]) were collected from the orbital vein such that samples were obtained at 0.083, 0.25, 0.5, 1, 2, 4, 8, and 24 h post dose. At each time point, blood samples were collected from three mice in labeled microcentrifuge tubes containing EDTA-K2 as an anticoagulant. Plasma samples were separated by centrifugation of whole blood and stored at −75 ± 15 °C until bioanalysis. All samples were processed for analysis by precipitation using acetonitrile (ACN) and analyzed with a fit-for-purpose LC/MS/MS method (the below quantifiable limit (BLOQ) was 5.0 ng/mL). Pharmacokinetic parameters were calculated by a noncompartmental analysis model using WinNonlin 8.3.
# [8] = supplementary csv, read-out: IPMK IC50
# [9] = Kinase-Glo assay, 12.5 μM Ins(1,4,5)P3, 10 μM ATP, read-out: IC50 toward recombinant human IPMK
Compound,"IC50 [1, 8] [nM]",IP6K2/IPMK [3],IC50 [3] [nM],"IC50 [1, 9]",AUC(0-t) [7] [µM·h],Cmax [7] [µM],clearance [7] [mL/min/kg],half-life [7] [h],Vd [7] [L/kg],also measured
"Cc1cc(C)cc(-c2onc3ccc([C@H]4C[C@@H]4C(=O)O)cc23)c1 (racemic) [Compound 2, (±)-trans-2-(3-(3,5-Dimethylphenyl)benzo[c]isoxazol-5-yl)cyclopropane-1-carboxylic acid]",166 ± 19.6,1.6,265 ± 20,–,–,–,–,–,–,decrease of inhibitory activity toward IPMK compared to 1 [2]: 6 fold
"Cc1cc(C)cc(-c2onc3ccc(/C=C/C(=O)O)cc23)c1 [Compound 1, (E)-3-(3-(3,5-Dimethylphenyl)benzo[c]isoxazol-5-yl)acrylic Acid]",–,9.5,248 ± 119,26 nM and 26.2 nM,–,–,–,–,–,"cell number, CyQuant DNA content assay [4]: significant decrease in cell number; accumulation of InsP4 [5]: significantly decreased; accumulation of InsP5 [5]: significantly decreased; accumulation of InsP6 [5]: significantly decreased"
Cc1cc(C)cc(-c2onc3ccc(C(=O)O)cc23)c1 [Compound 3],215 ± 37.5,–,–,–,–,–,–,–,–,decrease of inhibitory activity toward IPMK compared to 1 [2]: 8 fold
"Cc1cc(C)cc(-c2onc3ccc(-c4nnn[nH]4)cc23)c1 [Compound 4, 3-(3,5-Dimethylphenyl)-5-(1H-tetrazol-5-yl)benzo[c]isoxazole]",24.7 ± 1.6,4.6,113 ± 69.5,25 ± 1.6 nM,–,–,–,–,–,improved potency toward IPMK compared to compound 3 ([2]; compared to compound 3): 9 fold; solubility compared to compound 3 [6]: improved
"c1ccc(-c2onc3ccc(-c4nnn[nH]4)cc23)cc1 [Compound 6, 3-Phenyl-5-(1H-tetrazol-5-yl)benzo[c]isoxazole]",36 ± 5.5,3.5,125 ± 66.2,–,–,–,–,–,–,–
"FC(F)(F)c1ccc(-c2onc3ccc(-c4nnn[nH]4)cc23)cc1 [Compound 7, 5-(1H-Tetrazol-5-yl)-3-(4-(trifluoromethyl)phenyl)benzo[c]isoxazole]",18.6 ± 1.4,7.8,146 ± 97.1,19 ± 1.4 nM,–,–,–,–,–,–
"FC(F)(F)Oc1ccc(-c2onc3ccc(-c4nnn[nH]4)cc23)cc1 [Compound 8, 5-(1H-Tetrazol-5-yl)-3-(4-(trifluoromethoxy)phenyl)benzo[c]isoxazole]",18.3 ± 1.6,5.0,91.7 ± 50.9,18 ± 1.6 nM,46.9,33,3.15,0.92,0.26,–
"c1ccc(Oc2ccc(-c3onc4ccc(-c5nnn[nH]5)cc34)cc2)cc1 [Compound 9, 3-(4-Phenoxyphenyl)-5-(1H-tetrazol-5-yl)benzo[c]isoxazole]",185 ± 15.5,5.1,942 ± 348,–,–,–,–,–,–,–
"O=C(Nc1ccc(-c2onc3ccc(-c4nnn[nH]4)cc23)cc1)C1CC1 [Compound 10, N-(4-(5-(1H-Tetrazol-5-yl)benzo[c]isoxazol-3-yl)phenyl)cyclopropanecarboxamide]",58.2 ± 3.4,5.1,297 ± 141,58 ± 3.4 nM,–,–,–,–,–,–
"O=C(Nc1cccc(-c2onc3ccc(-c4nnn[nH]4)cc23)c1)C1CC1 [Compound 11, N-(3-(5-(1H-Tetrazol-5-yl)benzo[c]isoxazol-3-yl)phenyl)cyclopropanecarboxamide]",30.2 ± 1.7,3.5,107 ± 64.4,30 ± 1.7 nM,19.4,66.6,7.52,1.09,0.21,–
"c1cc(OC2CCNCC2)cc(-c2onc3ccc(-c4nnn[nH]4)cc23)c1 [Compound 12, 3-(3-(Piperidin-4-yloxy)phenyl)-5-(1H-tetrazol-5-yl)benzo[c]isoxazole]",31.3 ± 4,4.9,153 ± 79.8,31 ± 4 nM,10.8,44,11.8,1.29,0.23,–
"Clc1cnc(Oc2cccc(-c3onc4ccc(-c5nnn[nH]5)cc34)c2)c(Cl)c1 [Compound 13, 3-(3-((3,5-Dichloropyridin-2-yl)oxy)phenyl)-5-(1H-tetrazol-5-yl)benzo[c]isoxazole]",72.1 ± 5.2,1.8,129 ± 44.1,–,7.7,50.5,15.5,2.01,0.27,Vss (L/kg) [7]: increased
